Experimental data from patent US8796302B2 (priority 2004, dated 2014).

Key:
[1] = tested on: dopaminergic neurons in rat primary mesencephalic neuron-glia cultures; assay: [3H]DA uptake in LPS-treated mesencephalic neuron-glia cultures; type: cell-based; settings: LPS 10 ng/ml, 7 days; for LPS-induced decrease in [3H]-dopamine uptake: 30 min pretreatment
Procedure: Neuron-glia cultures were prepared from the ventral mesencephalic tissues of embryonic day 13-14 Fisher F344 rats or day 12-13 wild-type C57BL/6J (gp91phox^+/+) mice. Dissociated cells were seeded at 1×10^5/well and 5×10^5/well to poly-D-lysine-coated 96-well and 24-well plates, respectively. Cells were maintained at about 37° C. in a humidified atmosphere of 5% CO2 and 95% air, in minimal essential medium (MEM) containing 10% fetal bovine serum (FBS), 10% horse serum (HS), 1 gm/l glucose, 2 mM L-glutamine, 1 mM sodium pyruvate, 100 μM nonessential amino acids, 50 U/ml penicillin, and 50 μg/ml streptomycin. Seven-day-old cultures were used for treatment.
Dextromethorphan (obtained from Sigma-Aldrich (St. Louis, Mo.) as dextromethorphan hydrobromide) was freshly prepared as a stock solution (1 mM) in ddH2O and sterile-filtered right before use. For treatment of the cultures, the DM was serially diluted (10×) with fresh culture medium containing 2% of fetal bovine and horse serum. The neuron-glia cultures were pretreated with 10^−5-10^−17M DM 30 minutes prior to treatment with 10 ng/ml of LPS.
Seven days after treatment, the degeneration of dopaminergic neurons was assessed by [^3H]-dopamine (DA) uptake assays. The [^3H]-DA uptake assays were performed as follows. Cultures were washed twice with warm Krebs-Ringer buffer (KRB, 16 mM sodium phosphate, 119 mM NaCl, 4.7 mM KCl, 1.8 mM CaCl2, 1.2 mM MgSO4, 1.3 mM EDTA, and 5.6 mM glucose; pH7.4) and then incubated for about 20 minutes at about 37° C. with 1 μM [^3H]-DA in KRB in order to allow for the uptake of DA. Afterwards, the cultures were washed (three times) with ice-cold KRB and the cells were collected in 1 N NaOH. Radioactivity was determined by liquid scintillation counting.
This example tests whether or not post-treatment with DM is still neuroprotective in LPS-induced neurotoxicity. Neuron-glia co-cultures as prepared in Example 1 were first treated with LPS (20 ng/ml) for twelve hours, and then LPS was removed by removing the media from the cultures and washing twice with PBS. Different concentrations of DM (10^−5, 10^−10, and 10^−14 M) were then added to the cultures and incubation was continued for another 6 or 7 days. The DA uptake and the superoxide production were measured as in Example 1 and 5.
Neuron-glia cell cultures were prepared as in Example 1, and pretreated with the various peptide fragments of Table 1 (peptide fragments were obtained from BACHEM) for 30 minutes followed by addition of 5 ng/ml of LPS. DA neurotoxicity was measured as an Example 1 at 7 days post treatment.
DA neurotoxicity was measured at 7 days post treatment as in Example 1. Dopaminergic neuronal death was determined at 7 days post treatment using immunocytochemical staining as in Example 2.
Neuron-glia cultures were prepared from the ventral mesencephalic tissues of embryonic day 13-14 rats. Dissociated cells were seeded at 1×10^5/well and 5×10^5/well to poly-D-lysine-coated 96-well and 24-well plates, respectively.

[2] = tested on: dopaminergic neurons in mesencephalic neuron-enriched cultures; assay: [3H]DA uptake in Aβ- or MPP+-treated neuron-enriched cultures; type: cell-based, rat
Procedure: Neuron-enriched culture were prepared from the ventral mesencephalic tissues of embryonic day 13-14 Fisher F344 rats (Charles River Laboratories, Raleigh, N.C.) as follows. Dissociated cells were seeded at 1×10^5/well in 96-well and 5×10^5/well to poly-D-lysine-coated 96-well and 24-well plates, respectively. Glial proliferation was suppressed by the inclusion of cytosine β-D-arabinocide (5-10 μM). Seven day old cultures were used for treatment, which were composed of 91% neurons, 9% astrocytes, and <0.1% microglia. The cultures were pre-treated with OM, 10^−5 M, 10^−10 M, and 10^−14M DM 30 minutes before treatment with vehicle alone, 4 μM Aβ or 0.5 μM MPP^+5 as in Example 1. DA uptake was also measured as in Example 1 and the results are expressed in both FIGS. 4A and B as a percentage of the control cultures and are the mean±S.E.M. of four individual experiments with triplicates in each experiment. […]
Neuron-enriched cultures seeded in 24-well culture plates were pretreated for 48 hours with 0.6 mM VPA followed by treatment with 0.5 μM MPP^+. [^3H]DA uptake was measured 7 days after MPP^+ treatment according to procedures described in Example 1. Results are expressed as mean±SEM of percentage of vehicle control from three independent experiments performed in duplicate. *,p<0.05 compared with vehicle-treated cultures. †, p<0.05 compared with corresponding MPP^+-treated cultures.

NO = NO production (nitrite, Griess reagent) after LPS; type: cell-based, rat; settings: for LPS-stimulated NO production (nitrite): 24 after LPS 20 ng/ml
Procedure: (§1) Different pro-inflammatory factors that are released from microglia were also monitored. The production of NO was determined by measuring the accumulated levels of nitrite in the supernatant with the Griess reagent, and release of TNFα was measured with a rat TNFα enzyme-linked immunosorbent assay kit from R & D System (Minneapolis, Minn.).
The cultures were prepared as in Example 1 and were first treated with LPS 20 ng/ml or vehicle; 12 hours later the LPS was removed and the cultures were treated with 10^−5 M, 10^−10M, and 10^−14M DM. Twenty four hours later, nitrite oxide and PGE2 production were assessed as in Example 5. The results are expressed as a percentage of LPS treated culture and are the mean±S.E.M of four and three experiments with triplicates in each experiment. *, p<0.05 compared with the LPS-treated culture. ###, P<0.001 compared with the control culture.
Production of nitric oxide (NO) was determined in the mesencephalic neuron-glia cultures, following pretreatment and LPS stimulation as described above, by measuring the accumulated levels of nitrite in the supernatant with Griess reagent. Accumulation of nitrite, an indicator of LPS-stimulated production of NO, was determined 24 after LPS stimulation.

TNFα = TNFα release (ELISA) after LPS; type: cell-based, rat
Procedure: as §1
Mesencephalic neuron-glia cultures were pretreated with VPA or vehicle control for 48 hours prior to stimulation with 20 ng/ml LPS. The release of TNF-α was determined 3 hours after LPS treatment. The release of TNFα, was measured with a rat TNFα enzyme-linked immunosorbent assay kit from R & D System (Minneapolis, Minn.).

[3] = tested on: intracellular reactive oxygen species; assay: Intracellular ROS (DCFH oxidation) after LPS; type: cell-based, rat
Procedure: The production of intracellular reactive oxygen species was measured by DCFH oxidation. The DCFH-DA (Molecular Probes, Eugene, Oreg.) reagent passively diffuses into cells in which it is hydrolyzed by intracellular esterase to liberate 2′-7′-dichlorofluoressein which, during reaction with oxidizing species, yields a highly fluorescent compound 2′-7′-dichlorofluorescein (DCF) that is trapped inside the cell. For each measurement, a fresh stock solution of CM-H2-DCFDA (5 mM) was prepared in dimethylsulfoxide. CM-H2-DCFDA, diluted to a final concentration of 1 μM in phenol red-free HBSS containing 2% FBS and 2% HS, was added to cultures and incubated for about 30 min at about 37° C. After washing two times with warm HBSS, vehicle or stimulators in HBSS were added to cultures. After incubation for about 30 min at about 37° C., fluorescence intensity was measured at 485 nm for excitation and 530 nm for emission using a SpectraMax Gemini XS fluorescence microplate reader (Molecular Devices).
The data are expressed as the percent of the control cultures and are the mean±SEM of three experiments performed in triplicate. *P<0.05, **P<0.01, compared to control.
Assay of intracellular ROS is performed as follows. 5-(and −6)-Chloromethyl-2′,7′-dichlorodihydrofluorescein diacetate (CM-H2-DCFDA) (Molecular Probes, Eugene, Oreg.), a chloromethyl derivative of H2-DCFDA, passively diffuses into cells in which it is hydrolyzed by intracellular esterases to liberate 2′-7′-dichlorofluorescein (DCF) which, during reaction with oxidizing species, yields a highly fluorescent compound that is trapped inside the cell. […] Cells were seeded at 1×10^5/well in 96-well plates for one day followed by treatment with 0.6 mM or 1.2 mM VPA for 24 h. The cultures were used for the assay of intracellular ROS.
After washing two times with warm Hank's balanced salt solution (HBSS), CM-H2-DCFDA, diluted to a final concentration of 1 μM in phenol red-free HBSS, was added to cultures and incubated for 30 min at 37° C. Then cultures were added with 0.6 or 1.2 mM VPA in HBSS again for 30 min and followed the treatment with 100 ng/ml LPS for 2 hours at 37° C., fluorescence intensity was measured at 485 nm for excitation and 530 nm for emission using a SpectraMax Gemini XS fluorescence microplate reader (Molecular Devices, Sunnyvale, Calif.).

[4] = DM 10^−5 M and 10^−14 M pretreatment

Structure (SMILES): Oc1ccc2c(c1)[C@@]13CCCC[C@H]1[C@@H](C2)NCC3 [3-HM, 3-hydroxymorphinan]
- LPS-induced reduction in DA uptake ([1]; 3-HM 1-5 μM pretreatment): significantly attenuated the LPS-induced reduction in DA uptake

Structure (SMILES): COc1ccc2c(c1)[C@@]13CCCC[C@H]1[C@@H](C2)N(C)CC3 [DM, d-3-methoxy-N-methylmorphinan]
- LPS-induced decrease in [3H]-dopamine uptake ([1]; DM 10^−5 and 10^−6 M): attenuated the LPS-induced decrease
- LPS-induced decrease in [3H]-dopamine uptake ([1]; DM 10^−8 to 10^−12 M): no protective effects
- Aβ (1-42)-induced reduction of DA uptake ([2]; DM 10^−5, 10^−10, 10^−14 M, Aβ (1-42) 4 μM, 9 days, neuron-enriched): did not significantly alter
- LPS-induced increase in the release of NO (NO; [4]): significantly decreased
- LPS-induced increase in the release of NO (NO; DM 10^−10 M pretreatment): no significant reduction
- NO production, post treatment (NO; femtomolar DM after removal of LPS (20 ng/ml, 12 h), 24 h): reduction of NO and PGE2 production
- LPS-induced increase in the release of TNFα (TNFα; [4]): significantly decreased
- LPS-induced increase in the release of TNFα (TNFα; DM 10^−10 M pretreatment): no significant reduction
- LPS-induced increase in intracellular reactive oxygen species [3, 4]: significantly decreased
- LPS-induced increase in intracellular reactive oxygen species ([3]; DM 10^−10 M pretreatment): no significant reduction

Structure (SMILES): CCCC(CCC)C(=O)O [VPA, Valproic acid]
- MPP+-induced degeneration of DA neurons (DA uptake) ([2]; VPA 0.6 mM, 48 hours pretreatment, MPP+ 0.5 μM, 7 days): blocked
- LPS-stimulated NO production (nitrite) (NO; VPA 0.4 mM pretreatment): 54 % of the control
- LPS-stimulated NO production (nitrite) (NO; VPA 0.6 mM pretreatment): 78 % of the control
- LPS-induced TNFα production (TNFα; VPA 0.2 mM, 48 h pretreatment, 3 h after LPS 20 ng/ml): significant inhibited
- LPS-induced production of TNFα (TNFα; VPA 0.4 or 0.6 mM, 48 h pretreatment, 3 h after LPS 20 ng/ml): completely blocked
- LPS-induced increase of iROS level ([3]; VPA 0.6 or 1.2 mM pretreatment, enriched microglia, LPS 100 ng/ml 2 h): completely blocked
- basal iROS levels ([3]; VPA alone 0.6 mM, enriched microglia): reduced basal iROS levels
